Results on three molecules are retold here after USRE39866E1 (Telik, Inc., priority 1997, dated 2007).

Where two headings read alike, the source gives them in different places.

Test [1] concerns 3T3-L1 fibroblast cells. Put plainly: differentiation of 3T3-L1 fibroblasts to adipocyte-like morphology (Oil Red O uptake). Type of test: cell-based. An excerpt:
(§1) Insulin also enhances glucose transport in this cell line.

The target of test [2] is T1, recombinantly produced β chain lacking the insulin-binding domain (Homo sapiens, UniProt P06213).
T1 construct: purchased Stratagene, Inc
Put plainly: phosphorylation of substrate peptide Raytide by recombinant beta chain kinase. The class given is biochemical. The note with it: 25 μM. As to the method:
The ability of this kinase to phosphorylate a substrate peptide (Raytide from Oncogene Sciences) is stimulated by TER12 at 25 μM.

The target in a further test is T2, human insulin receptor (Homo sapiens, UniProt P06213).
T2 construct: partially purified from placental extracts or from cell line IM-9; from tissue; host or cells: human placental extracts or cell line IM-9
Briefly: phosphorylation of artificial substrate poly(Glu4Tyr) by activated receptor, labeled ATP. The class given is biochemical.

The target of test [3] is T3, insulin receptor on human lymphocytic cell line IM-9 (Homo sapiens, UniProt P06213).
T3 construct: on whole cells, i.e., on the human lymphocytic cell line IM-9; endogenous in cells; host or cells: IM-9 human lymphocytic cell line
Briefly: insulin receptor agonist activity on whole IM-9 cells (lysate ELISA). The class given is cell-based. As to the method:
The cells were then lysed in 0.5% Tween 20 and lysates analyzed in an ELISA assay as described in paragraph A, without the steps of incubation with ATP.

Test [4] relates to 3T3-L1 fibroblast cells. Briefly: glucose transport in 3T3-L1 cell line. Type of test: cell-based.
Text: as §1

For test [5], the target named is T4, human insulin receptors (hIR) (Homo sapiens, UniProt P06213).
T4 construct: partially purified from placental extracts or from cell line IM-9; from tissue; host or cells: human placental extracts or cell line IM-9
Put plainly: insulin receptor kinase autophosphorylation assay (captured hIR, anti-phosphotyrosine ELISA). The class given is biochemical. The following applies: for agonist activity in IR kinase assay (in words): samples as screened; for activity in IR kinase assay after synthesis or purification: synthesized or extensively purified / HPLC-purified material. As to the method:
This assay is a modified form of that described in Hagino, H. et al. Diabetes (1994) 43:274-280. […] The partially purified hIRs were captured into microplate wells by incubating them for 90 minutes with wells coated with a monoclonal antibody to hIR. […] After 60 minutes, the wells were washed, and then treated for 60 minutes with biotinylated antibody directed against phosphotyrosine (PY-20) and unbound materials again washed away. The wells were then incubated with a conventional streptavidin peroxidase system for 30 minutes to assess the level of phosphorylated tyrosine.

The test system of test [6] is Glut4 transporter in 3T3-L1 adipocytes. Briefly: distribution of Glut4 transporter in 3T3-L1 adipocytes (immunofluorescence). Type of test: cell-based. The note with it: 15 minutes incubation. From the text: The results were visualized under a fluorescent microscope.

T4 sequence (P06213 763-1382 limits assumed): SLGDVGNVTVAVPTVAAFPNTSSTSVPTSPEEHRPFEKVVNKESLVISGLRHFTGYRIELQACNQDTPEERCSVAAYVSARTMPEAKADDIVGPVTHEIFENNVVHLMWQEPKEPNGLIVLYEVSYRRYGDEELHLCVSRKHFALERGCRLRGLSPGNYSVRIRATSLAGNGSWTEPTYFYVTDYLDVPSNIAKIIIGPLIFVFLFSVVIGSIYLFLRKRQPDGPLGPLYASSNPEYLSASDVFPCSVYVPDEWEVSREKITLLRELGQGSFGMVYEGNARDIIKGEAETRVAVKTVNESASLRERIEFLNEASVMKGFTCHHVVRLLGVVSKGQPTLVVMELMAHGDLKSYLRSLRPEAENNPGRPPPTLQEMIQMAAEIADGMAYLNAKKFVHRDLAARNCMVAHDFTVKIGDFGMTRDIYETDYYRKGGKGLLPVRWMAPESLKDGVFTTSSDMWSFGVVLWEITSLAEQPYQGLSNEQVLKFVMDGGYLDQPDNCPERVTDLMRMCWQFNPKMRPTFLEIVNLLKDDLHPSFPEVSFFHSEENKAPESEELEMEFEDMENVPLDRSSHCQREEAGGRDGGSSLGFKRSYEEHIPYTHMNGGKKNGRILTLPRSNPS
T4 sequence (P06213 28-758 partner limits assumed): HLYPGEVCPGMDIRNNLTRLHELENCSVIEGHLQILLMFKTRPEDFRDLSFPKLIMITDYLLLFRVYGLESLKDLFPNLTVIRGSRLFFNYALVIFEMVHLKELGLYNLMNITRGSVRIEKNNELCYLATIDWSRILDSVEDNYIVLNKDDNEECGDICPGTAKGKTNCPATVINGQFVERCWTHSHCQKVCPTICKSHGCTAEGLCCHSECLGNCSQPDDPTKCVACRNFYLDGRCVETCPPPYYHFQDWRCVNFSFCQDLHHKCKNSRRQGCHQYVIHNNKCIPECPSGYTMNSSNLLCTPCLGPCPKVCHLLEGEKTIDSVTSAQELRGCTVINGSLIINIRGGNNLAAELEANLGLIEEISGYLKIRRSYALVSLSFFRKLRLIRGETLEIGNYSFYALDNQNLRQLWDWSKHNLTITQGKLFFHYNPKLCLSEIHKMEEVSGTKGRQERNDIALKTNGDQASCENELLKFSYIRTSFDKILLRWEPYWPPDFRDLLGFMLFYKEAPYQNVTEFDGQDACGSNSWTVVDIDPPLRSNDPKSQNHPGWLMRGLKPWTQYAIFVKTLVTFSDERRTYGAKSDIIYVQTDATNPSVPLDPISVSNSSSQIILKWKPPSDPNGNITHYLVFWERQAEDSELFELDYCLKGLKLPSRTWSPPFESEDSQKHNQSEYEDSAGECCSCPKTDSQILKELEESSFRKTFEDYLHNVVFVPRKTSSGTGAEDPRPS
T2 sequence (P06213 763-1382 limits assumed): as the sequence (P06213 763-1382 limits assumed) above
T2 sequence (P06213 28-758 partner limits assumed): as the sequence (P06213 28-758 partner limits assumed) above
T3 sequence (P06213 763-1382 limits assumed): as the sequence (P06213 763-1382 limits assumed) above
T3 sequence (P06213 28-758 partner limits assumed): as the sequence (P06213 28-758 partner limits assumed) above
T1 sequence (P06213 763-1382 limits assumed): as the sequence (P06213 763-1382 limits assumed) above

In general, EC50 refers to the concentration that produces a half-maximal response. Turning to `O=C(Nc1cc(S(=O)(=O)[O-])cc2cc(S(=O)(=O)[O-])c(N=Nc3cc(Nc4nc(Cl)nc(Nc5ccc(S(=O)(=O)[O-])cc5)n4)ccc3S(=O)(=O)[O-])c(O)c12)c1ccccc1.[Na+].[Na+].[Na+].[Na+]` [TER12, Cibacron Brilliant Red 3BA], the “effect on insulin-induced differentiation” value in the test on 3T3-L1 fibroblast cells [1] (20 μM with insulin) is given as “enhances the differentiating effect of insulin”. In addition, the effect on differentiation entry in the test on 3T3-L1 fibroblast cells [1] (sample alone) is on record as “does not appear to effect differentiation”. For the same molecule, the “stimulation of kinase phosphorylation of Raytide” value in test [2] was “stimulated”. Besides, the “percent of maximal phosphorylation” value on human insulin receptor (0.5 nM insulin plus 20 μM TER12 sample) is listed as 120%. Further, the “percent of maximal phosphorylation” value at human insulin receptor (5 nM insulin plus TER12 sample) stood at 140%. Further, the “percent of maximal insulin-stimulated activity” value on human insulin receptor (about 20 μM sample calculated as TER12, no insulin) is 75%. Besides, the “increase of basal insulin receptor kinase activity” value in test [3] (5 minutes exposure, sample containing 20 μM TER12) is “two-fold”. Further, the “increase of insulin stimulated insulin receptor kinase activity” value in test [3] (5 minutes exposure, sample containing 20 μM TER12, with insulin) is listed as “five-fold”. For the same molecule, the “stimulation of glucose transport” value in the test on 3T3-L1 fibroblast cells [4] (sample alone) is “failed to stimulate glucose transport significantly”. In the test on 3T3-L1 fibroblast cells [4] (with insulin), the “effect on insulin-stimulated glucose transport” value was “enhanced the ability of insulin to do so”. Further, the “increase in phosphorylation on addition to insulin” value in test [5] (60 μM sample added to hIR contacted with 0.3 nM insulin) is “approximately three-fold”. Also, the stimulation of autophosphorylation result in test [5] (absence of insulin, 20 μM of sample composed mainly of TER12) was “over five-fold”. For the same molecule, the EC50 in test [5] (read-out: EC50 for enhancing insulin stimulation, sample calculated as TER12) is around 20 µM. Moreover, in test [5], the “agonist activity in IR kinase assay (in words)” value was “apparent agonist activity” and the “activity in IR kinase assay after synthesis or purification” value is given as “active”.
As to `COc1ccccc1NC(=O)C(N=Nc1ccc(-c2nc3ccc(C)c(S(=O)(=O)[O-])c3s2)cc1S(=O)(=O)[O-])C(C)=O.[Na+].[Na+]` (stereo not drawn) [TER3938, Direct Yellow 27], the “enhancement of insulin-stimulated autophosphorylation of insulin receptor” value in test [3] (intact IM-9 cells) is “enhanced the activity of insulin”. Besides, in test [5] (insoluble compound after washing sample with aqueous sodium carbonate), the “activity in IR kinase assay of insoluble compound” value is recorded as “less active”. The EC50 in test [5] (read-out: EC50 in in vitro autophosphorylation assay) amounted to 8 µM. Further, in test [5], the “agonist activity in IR kinase assay (in words)” value is “agonist activity” and the “activity in IR kinase assay after synthesis or purification” value is on record as “retained its activity”.
As for insulin, in test [6], the “redistribution of Glut4” value is given as “dramatic redistribution of Glut4 to the membrane surfaces”.
